The results in this text go back to the supplement of paper PMC10627819.

What all share (assay): Bliss interaction score (quartile over a dose matrix) (fitness difference); higher = more antagonism (negative = synergy)
One assay has as its system B. subtilis 168. The method in brief:
(§1)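 The Bliss score was calculated by subtracting the expected fitness, the product of single-drug values, from the observed fitness. OD595 at entry into stationary phase, over the plate's robust no-drug mean and capped at 1, served as the fitness readout. Single-drug values were inferred from combination data, and scores are summarised by quartiles across technical, biological and donor/recipient replicates.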

For another assay, the system named is S. aureus Newman. Put shortly: as §1
The test system of the next assay is S. pneumoniae D39V. The method in brief:
as §1

The next assay concerns S. aureus DSM 20231. Put shortly:
as §1

Each structure is given as a SMILES string.
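Also: first quartile when negative (synergy) and third quartile when positive (antagonism).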

As to `CC[C@H]1OC(=O)[C@H](C)[C@@H](O[C@H]2C[C@@](C)(OC)[C@@H](O)[C@H](C)O2)[C@H](C)[C@@H](O[C@@H]2O[C@H](C)C[C@H](N(C)C)[C@H]2O)[C@](C)(O)C[C@@H](C)CN(C)[C@H](C)[C@@H](O)[C@]1(C)O` [Azithromycin] + O=C1CN(/N=C/c2ccc([N+](=O)[O-])o2)C(=O)N1 [Nitrofurantoin], the Bliss interaction score with B. subtilis 168 was -0.117; in the assay with S. aureus Newman, -0.0835; in the assay on S. pneumoniae D39V, -0.215; in the assay with S. aureus DSM 20231 it was -0.0881.
For `CC[C@H]1OC(=O)[C@H](C)[C@@H](O[C@H]2C[C@@](C)(OC)[C@@H](O)[C@H](C)O2)[C@H](C)[C@@H](O[C@@H]2O[C@H](C)C[C@H](N(C)C)[C@H]2O)[C@](C)(O)C[C@@H](C)CN(C)[C@H](C)[C@@H](O)[C@]1(C)O` [Azithromycin] + O=C(O)[C@H]1/C(=C/CO)O[C@@H]2CC(=O)N21 [Clavulanic], the Bliss interaction score in the assay on B. subtilis 168 was 0.115; in the assay with S. aureus Newman, 0.239; in the assay on S. pneumoniae D39V, -0.0573; in the assay with S. aureus DSM 20231 it was -0.136.
The like results for `CC[C@H]1OC(=O)[C@H](C)[C@@H](O[C@H]2C[C@@](C)(OC)[C@@H](O)[C@H](C)O2)[C@H](C)[C@@H](O[C@@H]2O[C@H](C)C[C@H](N(C)C)[C@H]2O)[C@](C)(O)C[C@@H](C)CN(C)[C@H](C)[C@@H](O)[C@]1(C)O` [Azithromycin] + Oc1cc(Cl)ccc1Oc1ccc(Cl)cc1Cl [Triclosan] were, in that order, -0.0359, -0.0316, -0.0322 and -0.133.
Take `CC1=C(C(=O)O)N2C(=O)[C@@H](NC(=O)[C@H](N)c3ccccc3)[C@H]2SC1` [Cephalexin] + CC1(C)S[C@@H]2[C@H](NC(=O)Cc3ccccc3)C(=O)N2[C@H]1C(=O)O [PenicillinG]: the Bliss interaction score in the assay on B. subtilis 168 is 0.0543; in the assay on S. aureus Newman it was -0.0472; in the assay with S. pneumoniae D39V, -0.199; with S. aureus DSM 20231, -0.0449.
Regarding `CC1=C(C(=O)O)N2C(=O)[C@@H](NC(=O)[C@H](N)c3ccccc3)[C@H]2SC1` [Cephalexin] + CC(=O)O[C@H]1C[C@@]2(C)[C@@H](C[C@@H](O)[C@H]3[C@@]4(C)CC[C@@H](O)[C@@H](C)[C@@H]4CC[C@@]32C)/C1=C(\CCC=C(C)C)C(=O)O [Fusidic acid], the Bliss interaction score was 0.0683 in the assay with B. subtilis 168, 0.0547 in the assay on S. aureus Newman, 0.143 in the assay on S. pneumoniae D39V and 0.0436 in the assay with S. aureus DSM 20231.
As to `CC1=C(C(=O)O)N2C(=O)[C@@H](NC(=O)[C@H](N)c3ccccc3)[C@H]2SC1` [Cephalexin] + CC(C1CCC(C(O1)OC2C(CC(C(C2O)OC3C(C(C(CO3)(C)O)NC)O)N)N)N)NC [Gentamicin], the Bliss interaction score in the assay with B. subtilis 168 (main component drawn) was -0.0985; with S. aureus Newman (main component drawn), -0.018; in the assay on S. pneumoniae D39V (main component drawn), -0.132; in the assay on S. aureus DSM 20231 (main component drawn) it was -0.0632.
Turning to `CC1=C(C(=O)O)N2C(=O)[C@@H](NC(=O)[C@H](N)c3ccccc3)[C@H]2SC1` [Cephalexin] + CCC[C@@H]1C[C@@H](C(=O)N[C@@H]([C@H]2O[C@H](SC)[C@H](O)[C@@H](O)[C@H]2O)[C@H](C)Cl)N(C)C1 [Clindamycin], the Bliss interaction score is -0.0509 with B. subtilis 168, 0.138 in the assay on S. aureus Newman, 0.14 in the assay with S. pneumoniae D39V and -0.0563 in the assay on S. aureus DSM 20231.
The matching figures for `CC1=C(C(=O)O)N2C(=O)[C@@H](NC(=O)[C@H](N)c3ccccc3)[C@H]2SC1` [Cephalexin] + CC[C@H]1OC(=O)[C@H](C)C(=O)[C@H](C)[C@@H](O[C@@H]2O[C@H](C)C[C@H](N(C)C)[C@H]2O)[C@](C)(OC)C[C@@H](C)C(=O)[C@H](C)[C@H]2N(CCCCn3cnc(-c4cccnc4)c3)C(=O)O[C@]12C [Telithromycin]: 0.0293, 0.0476, 0.0359 and 0.0639.
Take `CC1=C(C(=O)O)N2C(=O)[C@@H](NC(=O)[C@H](N)c3ccccc3)[C@H]2SC1` [Cephalexin] + CC[C@H]1OC(=O)[C@H](C)[C@@H](O[C@H]2C[C@@](C)(OC)[C@@H](O)[C@H](C)O2)[C@H](C)[C@@H](O[C@@H]2O[C@H](C)C[C@H](N(C)C)[C@H]2O)[C@](C)(O)C[C@@H](C)C(=O)[C@H](C)[C@@H](O)[C@]1(C)O [Erythromycin]: the Bliss interaction score in the assay with B. subtilis 168 is -0.0405; in the assay on S. aureus Newman, 0.0826; with S. pneumoniae D39V, 0.0656; in the assay with S. aureus DSM 20231 it was -0.0356.
The matching figures for `CC1=C(C(=O)O)N2C(=O)[C@@H](NC(=O)[C@H](N)c3ccccc3)[C@H]2SC1` [Cephalexin] + CC[C@H]1OC(=O)[C@H](C)[C@@H](O[C@H]2C[C@@](C)(OC)[C@@H](O)[C@H](C)O2)[C@H](C)[C@@H](O[C@@H]2O[C@H](C)C[C@H](N(C)C)[C@H]2O)[C@](C)(OC)C[C@@H](C)C(=O)[C@H](C)[C@@H](O)[C@]1(C)O [Clarithromycin]: 0.0576, 0.0874, 0.0361 and 0.0663.
Regarding `CC1=C(C(=O)O)N2C(=O)[C@@H](NC(=O)[C@H](N)c3ccccc3)[C@H]2SC1` [Cephalexin] + CN(C)[C@@H]1C(O)=C(C(N)=O)C(=O)[C@@]2(O)C(O)=C3C(=O)c4c(O)ccc(Cl)c4[C@@](C)(O)[C@H]3C[C@@H]12 [Clortetracycline], the Bliss interaction score with B. subtilis 168 stood at 0.0862; with S. aureus Newman it was 0.104; in the assay with S. pneumoniae D39V, 0.0348; with S. aureus DSM 20231, 0.0869.
The matching figures for `CC1=C(C(=O)O)N2C(=O)[C@@H](NC(=O)[C@H](N)c3ccccc3)[C@H]2SC1` [Cephalexin] + CN[C@H](CC(C)C)C(=O)N[C@H]1C(=O)N[C@@H](CC(N)=O)C(=O)N[C@H]2C(=O)N[C@H]3C(=O)N[C@H](C(=O)N[C@H](C(=O)O)c4cc(O)cc(O)c4-c4cc3ccc4O)[C@H](O[C@H]3C[C@](C)(N)[C@@H](O)[C@H](C)O3)c3ccc(c(Cl)c3)Oc3cc2cc(c3O[C@@H]2O[C@H](CO)[C@@H](O)[C@H](O)[C@H]2O[C@H]2C[C@](C)(NCc3ccc(-c4ccc(Cl)cc4)cc3)[C@@H](O)[C@H](C)O2)Oc2ccc(cc2Cl)[C@H]1O [Oritavancin]: 0.0217, 0.104, 0.069 and 0.0767.
Take `CC1=C(C(=O)O)N2C(=O)[C@@H](NC(=O)[C@H](N)c3ccccc3)[C@H]2SC1` [Cephalexin] + CO[C@@]12[C@H](COC(N)=O)C3=C(C(=O)C(C)=C(N)C3=O)N1C[C@@H]1N[C@@H]12 [MitomycinC]: the Bliss interaction score is -0.0415 with B. subtilis 168, 0.0613 in the assay with S. aureus Newman, -0.0789 in the assay on S. pneumoniae D39V and 0.0608 in the assay with S. aureus DSM 20231.
The matching figures for `CC1=C(C(=O)O)N2C(=O)[C@@H](NC(=O)[C@H](N)c3ccccc3)[C@H]2SC1` [Cephalexin] + COc1cccc2c1C(=O)c1c(O)c3c(c(O)c1C2=O)C[C@@](O)(C(=O)CO)C[C@@H]3O[C@H]1C[C@H](N)[C@H](O)[C@H](C)O1 [Doxorubicin]: 0.084, -0.0552, -0.111 and 0.0343.
The like results for `CC1=C(C(=O)O)N2C(=O)[C@@H](NC(=O)[C@H](N)c3ccccc3)[C@H]2SC1` [Cephalexin] + C[C@@H]1O[C@@H]1P(=O)(O)O [Fosfomycin] were, in that order, -0.0491, 0.134, -0.111 and 0.038.
